Source: patent US20260226493A1, “HERBICIDE RESISTANT PLANTS” (SYNGENTA CROP PROTECTION AG, priority 2023, published 2026)

Columns and labels:
Test in all cases: BIO3-BIO1 mutant enzyme activity in the presence of herbicide, percentage inhibition (fluorometric DAPA assay)
Format in all cases: biochemical
Settings in all cases: read-out: percentage inhibition
[1] = target: T1, Arabidopsis thaliana BIO3-BIO1 (BioDA) mutants (Arabidopsis thaliana, UniProt B0F481, Q517F)
T1 construct: with the predicted N-terminal mitochondrial transit peptide removed; 6xHis-tag (N); thrombin cleavage site (N); made in house; host or cells: E. coli BL21 (DE3) bioA
Source text: (§1) A pet-24 plasmid containing a DNA sequence encoding each identified variant mutant of BIO3-BIO1 derived from Arabidopsis thaliana from example 5 above, as shown in Table 13 below and as shown in full in SEQ ID NOs: 15 to 155, codon-optimised for expression in E. coli, with an N-terminal 6×His-tag and thrombin cleavage site and under control of a T7 promoter, and was synthesised by Twist Bioscience, in a similar manner to SEQ ID NO:311. These plasmids were then expressed in E. coli BL21 (DE3) bioA with 50 μg/mL kanamycin and 25 μg/mL chloramphenicol selection. Overnight cultures grown at 37° C. were used to inoculate 8×500 mL AIM in shake flasks at a ratio of 1:100. Cultures were grown at 37° C., 200 rpm for 3.5 hours and then overnight at 20° C. Cells were harvested by centrifugation for 30 minutes at 10 000 g. Cells were stored at −80° C. until extraction. 30 g of cell pellet from was thawed in 120 mL of IMAC buffer A (20 mM HEPES pH7.5, 25 mM imidazole, 500 mM sodium chloride, 0.15 mM pyridoxal phosphate, 0.5 mM TCEP, 1× complete Protease Inhibitor Tablet (Roche)). The resuspension was passed through a cell disrupter at 18 000 PSI and centrifuged at 50 000 g for 25 minutes at 4° C. The His-tagged BIO3-BIO1 protein was purified from the extract supernatant on an AKTA avant chromatography system (Cytiva) using a HisTrap FF column and eluted in IMAC buffer B ((20 mM HEPES pH7.5, 500 mM imidazole, 500 mM sodium chloride, 0.15 mM pyridoxal phosphate, 0.5 mM TCEP) followed by SEC using a HiLoad 26/60 Superdex200 column in SEC buffer (25 mM HEPES pH7.5, 150 mM sodium chloride, 0.15 mM pyridoxal phosphate, 0.5 mM TCEP). Protein concentration was measured and calculated using the absorbance at 280 nm. Extracts were diluted 1 in 4 and 10 uL was analysed by SDS PAGE.
(§2) To measure BIO3-BIO1 mutant enzyme activity in the presence of herbicide, herbicides were incubated with 20 μL of enzyme mix (100 mM EPPS pH 8.6, 0.1 mM pyridoxal phosphate, 0.1 mg/mL BSA, 50 nM BIO3-BIO1 enzyme) for 10 minutes at 20° C. in a well of a 96-well half-area black plate, followed by the addition of 20 μL of substrate mix (final concentration of 100 mM EPPS pH 8.6, 0.1 mM pyridoxal phosphate, 0.1 mg/mL BSA, 100 μM spermidine, 20 μM KAPA, 100 mM NaCO3) and further incubation for 75 minutes at 20° C. The reaction was terminated by the addition of 50 μL of derivatisation mix (final concentration of 250 mM borate NaOH pH 9.4, 3.6 mM o-phthalaldehyde, 7 mM β-mercaptoethanol, 17% (v/v) ethanol, 3.6% (v/v) methanol). The fluorescent product produced by the reaction of DAPA with o-phthalaldehyde and 7 mM β-mercaptoethanol was measured at 470 nm after excitation at 410 nm. The percentage inhibition was calculated as the activity in the presence of one of three concentrations of each herbicide compound A to M (note that the compounds labelled as A to M are identified hereinabove in the relevant section of the description) as a percentage of the activity in DMSO (Table 12 and 13). The percentage activity versus WT was also calculated and is shown in Table 13 and 14 (NT indicates mutation not tested in table 13, note that these mutations are tested at different compound concentrations for compounds L, M and C, and the results are shown in table 14).

[2] = target: T2, Arabidopsis thaliana BIO3-BIO1 (BioDA) mutants (Arabidopsis thaliana, UniProt B0F481, Y511F)
T2 construct: with the predicted N-terminal mitochondrial transit peptide removed; 6xHis-tag (N); thrombin cleavage site (N); made in house; host or cells: E. coli BL21 (DE3) bioA
Source text: as §1, §2

[3] = target: T3, Arabidopsis thaliana BIO3-BIO1 (BioDA) mutants (Arabidopsis thaliana, UniProt B0F481, Y511M)
T3 construct: with the predicted N-terminal mitochondrial transit peptide removed; 6xHis-tag (N); thrombin cleavage site (N); made in house; host or cells: E. coli BL21 (DE3) bioA
Source text: as §1, §2

[4] = target: T4, Arabidopsis thaliana BIO3-BIO1 (BioDA) mutants (Arabidopsis thaliana, UniProt B0F481, F348C)
T4 construct: with the predicted N-terminal mitochondrial transit peptide removed; 6xHis-tag (N); thrombin cleavage site (N); made in house; host or cells: E. coli BL21 (DE3) bioA
Source text: as §1, §2

[5] = target: T5, Arabidopsis thaliana BIO3-BIO1 (BioDA) mutants (Arabidopsis thaliana, UniProt B0F481, Y511C)
T5 construct: with the predicted N-terminal mitochondrial transit peptide removed; 6xHis-tag (N); thrombin cleavage site (N); made in house; host or cells: E. coli BL21 (DE3) bioA
Source text: as §1, §2

[6] = target: T6, Arabidopsis thaliana BIO3-BIO1 (BioDA) mutants (Arabidopsis thaliana, UniProt B0F481, F348Q)
T6 construct: with the predicted N-terminal mitochondrial transit peptide removed; 6xHis-tag (N); thrombin cleavage site (N); made in house; host or cells: E. coli BL21 (DE3) bioA
Source text: as §1, §2

[7] = target: T7, Arabidopsis thaliana BIO3-BIO1 (BioDA) mutants (Arabidopsis thaliana, UniProt B0F481, P510E)
T7 construct: with the predicted N-terminal mitochondrial transit peptide removed; 6xHis-tag (N); thrombin cleavage site (N); made in house; host or cells: E. coli BL21 (DE3) bioA
Source text: as §1, §2

[8] = target: T8, Arabidopsis thaliana BIO3-BIO1 (BioDA) mutants (Arabidopsis thaliana, UniProt B0F481, G700A)
T8 construct: with the predicted N-terminal mitochondrial transit peptide removed; 6xHis-tag (N); thrombin cleavage site (N); made in house; host or cells: E. coli BL21 (DE3) bioA
Source text: as §1, §2

[9] = target: T9, Arabidopsis thaliana BIO3-BIO1 (BioDA) mutants (Arabidopsis thaliana, UniProt B0F481, A609H)
T9 construct: with the predicted N-terminal mitochondrial transit peptide removed; 6xHis-tag (N); thrombin cleavage site (N); made in house; host or cells: E. coli BL21 (DE3) bioA
Source text: as §1, §2

[10] = target: T10, Arabidopsis thaliana BIO3-BIO1 (BioDA) mutants (Arabidopsis thaliana, UniProt B0F481, T512Q)
T10 construct: with the predicted N-terminal mitochondrial transit peptide removed; 6xHis-tag (N); thrombin cleavage site (N); made in house; host or cells: E. coli BL21 (DE3) bioA
Source text: as §1, §2

[11] = target: T11, Arabidopsis thaliana BIO3-BIO1 (BioDA) mutants (Arabidopsis thaliana, UniProt B0F481, G513A)
T11 construct: with the predicted N-terminal mitochondrial transit peptide removed; 6xHis-tag (N); thrombin cleavage site (N); made in house; host or cells: E. coli BL21 (DE3) bioA
Source text: as §1, §2

[12] = target: T12, Arabidopsis thaliana BIO3-BIO1 (BioDA) mutants (Arabidopsis thaliana, UniProt B0F481, Q350H)
T12 construct: with the predicted N-terminal mitochondrial transit peptide removed; 6xHis-tag (N); thrombin cleavage site (N); made in house; host or cells: E. coli BL21 (DE3) bioA
Source text: as §1, §2

T3 sequence (B0F481 23-833 Y511M): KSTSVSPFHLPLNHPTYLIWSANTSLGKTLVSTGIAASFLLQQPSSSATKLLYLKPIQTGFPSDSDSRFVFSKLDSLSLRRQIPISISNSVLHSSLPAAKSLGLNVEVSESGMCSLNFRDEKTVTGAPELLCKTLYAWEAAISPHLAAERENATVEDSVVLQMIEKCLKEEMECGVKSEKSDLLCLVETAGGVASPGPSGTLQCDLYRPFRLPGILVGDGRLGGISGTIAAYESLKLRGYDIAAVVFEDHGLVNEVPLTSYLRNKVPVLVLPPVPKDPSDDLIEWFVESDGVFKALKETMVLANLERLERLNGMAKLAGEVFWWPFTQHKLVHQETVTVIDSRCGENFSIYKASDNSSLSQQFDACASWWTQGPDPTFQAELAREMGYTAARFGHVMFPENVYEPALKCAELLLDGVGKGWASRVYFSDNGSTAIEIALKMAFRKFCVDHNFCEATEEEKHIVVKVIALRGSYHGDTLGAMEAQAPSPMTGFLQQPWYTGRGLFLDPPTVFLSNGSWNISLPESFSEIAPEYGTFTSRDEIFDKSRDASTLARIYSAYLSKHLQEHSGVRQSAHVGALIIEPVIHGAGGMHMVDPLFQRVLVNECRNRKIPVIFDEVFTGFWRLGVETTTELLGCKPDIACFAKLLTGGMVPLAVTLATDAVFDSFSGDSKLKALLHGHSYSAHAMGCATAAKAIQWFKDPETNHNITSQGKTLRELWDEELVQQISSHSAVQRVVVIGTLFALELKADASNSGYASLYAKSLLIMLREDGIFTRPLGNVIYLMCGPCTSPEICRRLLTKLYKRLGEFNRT
T11 sequence (B0F481 23-833 G513A): as the sequence (B0F481 23-833 Y511M) above, with M489Y, G491A counted along it
T10 sequence (B0F481 23-833 T512Q): as the sequence (B0F481 23-833 Y511M) above, with M489Y, T490Q counted along it
T4 sequence (B0F481 23-833 F348C): as the sequence (B0F481 23-833 Y511M) above, with F326C, M489Y counted along it
T1 sequence (B0F481 23-833 Q517F): as the sequence (B0F481 23-833 Y511M) above, with M489Y, Q495F counted along it
T12 sequence (B0F481 23-833 Q350H): as the sequence (B0F481 23-833 Y511M) above, with Q328H, M489Y counted along it
T5 sequence (B0F481 23-833 Y511C): as the sequence (B0F481 23-833 Y511M) above, with M489C counted along it
T7 sequence (B0F481 23-833 P510E): as the sequence (B0F481 23-833 Y511M) above, with P488E, M489Y counted along it
T8 sequence (B0F481 23-833 G700A): as the sequence (B0F481 23-833 Y511M) above, with M489Y, G678A counted along it
T6 sequence (B0F481 23-833 F348Q): as the sequence (B0F481 23-833 Y511M) above, with F326Q, M489Y counted along it
T9 sequence (B0F481 23-833 A609H): as the sequence (B0F481 23-833 Y511M) above, with M489Y, A587H counted along it
T2 sequence (B0F481 23-833 Y511F): as the sequence (B0F481 23-833 Y511M) above, with M489F counted along it

SMILES: CCn1c(-c2ccc(Cl)c(Cl)c2)c(C(=O)O)c(=O)c2cc(F)ccc21 [Compound M, 2-(3,4-dichlorophenyl)-1-ethyl-6-fluoro-4-oxo-quinoline-3-carboxylic acid]
- inhibition at 0.2 µM [1]: 0%
- inhibition at 1 µM [1]: 29%
- inhibition at 5 µM [1]: 70%
- inhibition at 0.2 µM [2]: 24%
- inhibition at 1 µM [2]: 57%
- inhibition at 5 µM [2]: 82%
- inhibition at 0.2 µM [3]: 41%
- inhibition at 1 µM [3]: 83%
- inhibition at 5 µM [3]: 97%
- inhibition at 0.2 µM [4]: 14%
- inhibition at 1 µM [4]: 3%
- inhibition at 5 µM [4]: 0%
- inhibition at 0.2 µM [5]: 16%
- inhibition at 1 µM [5]: 67%
- inhibition at 5 µM [5]: 92%
- inhibition at 0.2 µM [6]: 0%
- inhibition at 1 µM [6]: 0%
- inhibition at 5 µM [6]: 16%
- inhibition at 0.2 µM [7]: 0%
- inhibition at 1 µM [7]: 25%
- inhibition at 5 µM [7]: 61%
- inhibition at 0.2 µM [8]: 7%
- inhibition at 1 µM [8]: 8%
- inhibition at 5 µM [8]: 6%
- inhibition at 0.2 µM [9]: 7%
- inhibition at 1 µM [9]: 2%
- inhibition at 5 µM [9]: 25%
- inhibition at 0.2 µM [10]: 49%
- inhibition at 1 µM [10]: 91%
- inhibition at 5 µM [10]: 99%
- inhibition at 0.2 µM [11]: 25%
- inhibition at 1 µM [11]: 58%
- inhibition at 5 µM [11]: 90%
- inhibition at 0.2 µM [12]: 0%
- inhibition at 1 µM [12]: 8%
- inhibition at 5 µM [12]: 20%

SMILES: CCn1c(C)c(-c2ccc(F)cc2F)c(=O)c(C(=O)O)c1-c1ccc(Cl)c(Cl)c1 [Compound C, 2-(3,4-dichlorophenyl)-5-(2,4-difluorophenyl)-1-ethyl-6-methyl-4-oxo-pyridine-3-carboxylic acid]
- inhibition at 0.2 µM [1]: 29%
- inhibition at 1 µM [1]: 55%
- inhibition at 5 µM [1]: 85%
- inhibition at 0.2 µM [2]: 44%
- inhibition at 1 µM [2]: 67%
- inhibition at 5 µM [2]: 90%
- inhibition at 0.2 µM [3]: 76%
- inhibition at 1 µM [3]: 99%
- inhibition at 5 µM [3]: 100%
- inhibition at 0.2 µM [4]: 0%
- inhibition at 1 µM [4]: 0%
- inhibition at 5 µM [4]: 0%
- inhibition at 0.2 µM [5]: 33%
- inhibition at 1 µM [5]: 86%
- inhibition at 5 µM [5]: 98%
- inhibition at 0.2 µM [6]: 3%
- inhibition at 1 µM [6]: 0%
- inhibition at 5 µM [6]: 25%
- inhibition at 0.2 µM [7]: 8%
- inhibition at 1 µM [7]: 38%
- inhibition at 5 µM [7]: 74%
- inhibition at 0.2 µM [8]: 4%
- inhibition at 1 µM [8]: 7%
- inhibition at 5 µM [8]: 28%
- inhibition at 0.2 µM [9]: 0%
- inhibition at 1 µM [9]: 7%
- inhibition at 5 µM [9]: 20%
- inhibition at 0.2 µM [10]: 53%
- inhibition at 1 µM [10]: 96%
- inhibition at 5 µM [10]: 100%
- inhibition at 0.2 µM [11]: 10%
- inhibition at 1 µM [11]: 63%
- inhibition at 5 µM [11]: 88%
- inhibition at 0.2 µM [12]: 0%
- inhibition at 1 µM [12]: 2%
- inhibition at 5 µM [12]: 25%
